Experimental data as given in patent US12448394B2, “Heterocyclic pyrazole derivatives as type III receptor tyrosine kinase inhibitors” (DEVELOPMENT CENTER FOR BIOTECHNOLOGY, priority 2019, dated 2025).

Tests used:
Format in all cases: biochemical
MET kinase = target: T1, MET kinase (Homo sapiens, UniProt P08581); assay: MET kinase assay (AlphaScreen, counter screen); details: read-out: Ranking of IC50 values, MET
T1 construct: purchased SignalChem
Summary of the method: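 IC50 came from duplicate serial dilutions, with AlphaScreen detection of phosphorylated biotin-poly(Glu4:Tyr1). The reaction used 1 ng recombinant MET, 10 µM ATP […], and MOPS pH 7.0/MgCl2 buffer, ran 45 min at 30 °C, and was quenched with EDTA.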

FLT3 kinase = target: T2, FLT3 kinase (Homo sapiens, UniProt P36888); assay: FLT3 kinase assay (AlphaScreen); details: read-out: Ranking of IC50 values, FLT3
T2 construct: purchased SignalChem
T2 sequence (P36888 27-993): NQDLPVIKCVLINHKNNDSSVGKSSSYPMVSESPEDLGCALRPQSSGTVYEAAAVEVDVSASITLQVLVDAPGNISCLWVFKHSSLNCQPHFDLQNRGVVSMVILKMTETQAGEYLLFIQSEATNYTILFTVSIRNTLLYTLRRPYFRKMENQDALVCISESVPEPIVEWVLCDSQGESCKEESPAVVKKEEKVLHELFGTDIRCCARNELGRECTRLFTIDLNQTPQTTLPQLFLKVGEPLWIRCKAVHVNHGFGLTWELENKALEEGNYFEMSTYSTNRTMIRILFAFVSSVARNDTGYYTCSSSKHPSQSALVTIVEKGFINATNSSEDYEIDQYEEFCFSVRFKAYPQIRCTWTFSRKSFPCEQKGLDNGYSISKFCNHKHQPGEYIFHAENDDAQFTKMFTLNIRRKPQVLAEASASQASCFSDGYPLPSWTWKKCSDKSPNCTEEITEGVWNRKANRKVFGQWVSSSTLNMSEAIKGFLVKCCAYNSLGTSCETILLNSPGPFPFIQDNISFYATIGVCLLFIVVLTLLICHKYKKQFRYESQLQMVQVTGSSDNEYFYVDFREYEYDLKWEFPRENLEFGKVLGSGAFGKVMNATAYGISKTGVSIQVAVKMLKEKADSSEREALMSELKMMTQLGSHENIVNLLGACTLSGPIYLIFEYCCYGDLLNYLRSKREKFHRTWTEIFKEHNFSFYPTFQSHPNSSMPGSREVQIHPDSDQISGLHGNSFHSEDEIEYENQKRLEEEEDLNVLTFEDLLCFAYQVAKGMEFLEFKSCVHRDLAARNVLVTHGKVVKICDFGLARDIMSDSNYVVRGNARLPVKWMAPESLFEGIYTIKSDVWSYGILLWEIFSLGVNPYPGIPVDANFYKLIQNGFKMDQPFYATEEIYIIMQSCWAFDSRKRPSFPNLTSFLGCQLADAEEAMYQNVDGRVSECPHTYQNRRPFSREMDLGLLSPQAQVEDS
Summary of the method: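 AlphaScreen detection of biotin-poly(Glu4:Tyr1) phosphorylation by 1.5 ng recombinant FLT3 (10 μM ATP, pH 7.0 MOPS, 10 mM MgCl2; 30 °C, 30 min, EDTA quench). IC50 values derived from serially diluted compound tested in duplicate.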

PDGFRα kinase = target: T3, PDGFRα kinase (Homo sapiens, UniProt P16234); assay: PDGFRα kinase assay (AlphaScreen); details: read-out: Ranking of IC50 values, PDGFRα
T3 construct: purchased SignalChem
Summary of the method: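 IC50 values came from duplicate serial dilutions, with product read by AlphaScreen. The reaction ran 30 min at 30 °C, then EDTA stop: 1.5 ng recombinant enzyme, biotin-poly(Glu4:Tyr1) substrate, 10 μM ATP, 10 mM MOPS pH 7.0, 10 mM MgCl2.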

T3 sequence (P16234 24-1089): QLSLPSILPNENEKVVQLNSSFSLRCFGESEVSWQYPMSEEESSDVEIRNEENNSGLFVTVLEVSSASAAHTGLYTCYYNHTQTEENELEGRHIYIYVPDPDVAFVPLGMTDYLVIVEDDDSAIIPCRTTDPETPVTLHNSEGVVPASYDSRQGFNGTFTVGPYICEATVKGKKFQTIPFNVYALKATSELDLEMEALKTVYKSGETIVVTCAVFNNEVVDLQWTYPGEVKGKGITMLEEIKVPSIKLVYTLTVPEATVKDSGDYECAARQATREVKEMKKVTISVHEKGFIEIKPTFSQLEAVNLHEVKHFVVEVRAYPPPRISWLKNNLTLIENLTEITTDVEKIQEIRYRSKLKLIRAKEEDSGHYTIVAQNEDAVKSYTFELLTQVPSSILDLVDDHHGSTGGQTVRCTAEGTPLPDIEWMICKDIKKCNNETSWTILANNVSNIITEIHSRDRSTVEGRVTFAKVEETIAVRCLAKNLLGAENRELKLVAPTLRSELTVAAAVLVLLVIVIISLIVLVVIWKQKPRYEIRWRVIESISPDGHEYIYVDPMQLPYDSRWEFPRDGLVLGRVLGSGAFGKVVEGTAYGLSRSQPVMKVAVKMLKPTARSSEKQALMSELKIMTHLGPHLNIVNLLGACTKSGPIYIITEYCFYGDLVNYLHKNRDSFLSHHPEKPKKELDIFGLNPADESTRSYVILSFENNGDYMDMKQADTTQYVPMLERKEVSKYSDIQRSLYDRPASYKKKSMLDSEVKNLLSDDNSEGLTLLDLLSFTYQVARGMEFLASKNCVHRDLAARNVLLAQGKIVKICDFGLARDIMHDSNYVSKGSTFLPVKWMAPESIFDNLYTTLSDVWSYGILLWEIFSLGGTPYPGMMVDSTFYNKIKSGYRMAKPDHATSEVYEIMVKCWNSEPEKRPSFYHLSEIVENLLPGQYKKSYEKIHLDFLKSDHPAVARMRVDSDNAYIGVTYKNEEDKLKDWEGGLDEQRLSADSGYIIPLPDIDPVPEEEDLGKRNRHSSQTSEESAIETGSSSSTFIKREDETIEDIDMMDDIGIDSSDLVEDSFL
T1 sequence (P08581 25-1390): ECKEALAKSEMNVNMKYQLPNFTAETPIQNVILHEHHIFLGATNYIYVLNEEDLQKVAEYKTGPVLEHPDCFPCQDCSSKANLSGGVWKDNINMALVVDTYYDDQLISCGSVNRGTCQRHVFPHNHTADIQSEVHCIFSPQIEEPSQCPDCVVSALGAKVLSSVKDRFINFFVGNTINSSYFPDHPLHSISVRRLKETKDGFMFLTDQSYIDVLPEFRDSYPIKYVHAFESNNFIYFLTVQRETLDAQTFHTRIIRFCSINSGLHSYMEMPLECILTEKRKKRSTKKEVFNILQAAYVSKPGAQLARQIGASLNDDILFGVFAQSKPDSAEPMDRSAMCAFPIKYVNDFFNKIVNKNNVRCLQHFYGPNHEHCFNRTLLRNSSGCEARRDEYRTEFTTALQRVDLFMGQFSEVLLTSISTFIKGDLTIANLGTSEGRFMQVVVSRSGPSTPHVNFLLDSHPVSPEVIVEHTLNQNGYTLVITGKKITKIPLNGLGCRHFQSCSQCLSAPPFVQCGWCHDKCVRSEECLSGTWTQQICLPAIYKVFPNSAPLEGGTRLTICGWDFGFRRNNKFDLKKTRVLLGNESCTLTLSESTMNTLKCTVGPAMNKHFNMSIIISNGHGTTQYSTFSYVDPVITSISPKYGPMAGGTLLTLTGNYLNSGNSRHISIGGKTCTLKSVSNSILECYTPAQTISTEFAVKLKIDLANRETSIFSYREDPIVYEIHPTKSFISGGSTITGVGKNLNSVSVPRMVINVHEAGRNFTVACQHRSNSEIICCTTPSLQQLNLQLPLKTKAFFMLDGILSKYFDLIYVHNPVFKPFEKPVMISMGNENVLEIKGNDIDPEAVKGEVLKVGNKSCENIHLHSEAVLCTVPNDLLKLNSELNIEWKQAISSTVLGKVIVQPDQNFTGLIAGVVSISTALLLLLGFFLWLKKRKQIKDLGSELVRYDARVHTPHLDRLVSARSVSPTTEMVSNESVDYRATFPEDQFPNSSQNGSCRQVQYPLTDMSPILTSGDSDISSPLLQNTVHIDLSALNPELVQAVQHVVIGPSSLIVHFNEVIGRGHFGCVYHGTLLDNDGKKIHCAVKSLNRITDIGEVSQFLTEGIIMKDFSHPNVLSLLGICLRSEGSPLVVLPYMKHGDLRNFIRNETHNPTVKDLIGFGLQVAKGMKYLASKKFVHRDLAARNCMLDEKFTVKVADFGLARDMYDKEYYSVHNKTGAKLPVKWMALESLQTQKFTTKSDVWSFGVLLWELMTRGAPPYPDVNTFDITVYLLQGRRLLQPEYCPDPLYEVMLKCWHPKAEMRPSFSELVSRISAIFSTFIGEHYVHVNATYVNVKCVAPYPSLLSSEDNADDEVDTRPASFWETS

IC50 (MET kinase) [µM]	IC50 (FLT3 kinase) [µM]	IC50 (PDGFRα kinase) [µM]	Compound
> 1	0.001 to 0.01	0.001 to 0.01	Cn1ncc2ccc(-c3n[nH]c4c3Cc3sc(-c5ccc(CN6CCOCC6)c(F)c5)cc3-4)cc21 [Compound 25, 4-(2-fluoro-4-(3-(1-methyl-1H-indazol-6-yl)-1,4-dihydrothieno[2′,3′:4,5]cyclopenta[1,2-c]pyrazol-6-yl)benzyl)morpholine]
> 1	< 0.001	0.001 to 0.01	Cn1ncc2ccc(-c3n[nH]c4c3Cc3sc(-c5ccc(CN6CCOCC6)cn5)cc3-4)cc21 [Compound 95, 4-((6-(3-(1-methyl-1H-indazol-6-yl)-1,4-dihydro-thieno[2′,3′:4,5]cyclopenta [1,2-c]pyrazol-6-yl)pyridin-3-yl)methyl) morpholine]
> 1	0.001 to 0.01	0.01 to 0.03	Cn1ncc2ccc(-c3n[nH]c4c3Cc3sc(-c5ccc(CN6CCSCC6)cc5)cc3-4)cc21 [Compound 39, 3-(1-methyl-1H-indazol-6-yl)-6-(4-(thiomorpho-linomethyl)phenyl)-1,4-dihydrothieno[2′,3′:4,5] cyclopenta[1,2-c]pyrazole]
> 1	< 0.001	0.001 to 0.01	C[C@@H]1CN(Cc2ccc(-c3cc4c(s3)Cc3c(-c5ccc6cnn(C)c6c5)n[nH]c3-4)cn2)C[C@H](C)O1 [Compound 9, (2S,6R)-2,6-dimethyl-4-((5-(3-(1-methyl-lH-indazol-6-yl)-1,4-dihydro-thieno[2′,3′:4,5]cyclopenta [1,2-c]pyrazol-6-yl)pyridin-2-yl)methyl) morpholine]
> 1	0.001 to 0.01	0.03 to 0.1	Cn1ncc2ccc(-c3n[nH]c4c3Cc3sc(-c5ccc(CC6CCOCC6)cc5)cc3-4)cc21 [Compound 77, 3-(1-methyl-1H-indazol-6-yl)-6-(4-((tetrahydro-2H-pyran-4-yl)methyl)phenyl)-1,4-dihydrothieno [2′,3′:4,5]cyclopenta [1,2-c]pyrazole]
> 1	< 0.001	0.001 to 0.01	Cn1ncc2ccc(-c3n[nH]c4c3Cc3sc(N5CCOCC5)cc3-4)cc21 [Compound 78, 4-(3-(1-methyl-1H-indazol-6-yl)-1,4-dihydro-thieno[2′,3′:4,5]cyclopenta [1,2-c]pyrazol-6-yl) morpholine]
0.3 to 1	< 0.001	0.001 to 0.01	Cn1ncc2ccc(-c3n[nH]c4c3Cc3sc(-c5ccc(CN6CCC(N7CCOCC7)CC6)cc5)cc3-4)cc21 [Compound 80, 4-(1-(4-(3-(1-methyl-1H-indazol-6-yl)-1,4-dihydro-thieno[2′,3′:4,5]cyclopenta [1,2-c]pyrazol-6-yl)benzyl)piperidin-4-yl) morpholine]
> 1	0.001 to 0.01	0.01 to 0.03	Cn1ncc2ccc(-c3n[nH]c4c3Cc3sc(-c5ccc(C(=O)N6CCCC6)cc5)cc3-4)cc21 [Compound 38, (4-(3-(1-methyl-1H-indazol-6-yl)-1,4-dihydro-thieno[2′,3′:4,5]cyclopenta [1,2-c]pyrazol-6-yl)phenyl)(pyrrolidin-1-yl) methanone]
> 1	< 0.001	0.01 to 0.03	Cn1ncc2ccc(-c3n[nH]c4c3Cc3sc(-c5cnc(C(=O)N6CCOCC6)nc5)cc3-4)cc21 [Compound 41, (5-(3-(1-methyl-1H-indazol-6-yl)-1,4-dihydrothieno[2′,3′:4,5]cyclopenta[1,2-c]pyrazol-6-yl)pyrimidin-2-yl) (morpholino)methanone]
> 1	< 0.001	0.001 to 0.01	Cn1ncc2ccc(-c3n[nH]c4c3Cc3sc(-c5ccc(S(=O)(=O)N6CCOCC6)cc5)cc3-4)cc21 [Compound 47, 4-((4-(3-(1-methyl-1H-indazol-6-yl)-1,4-dihydro-thieno[2′,3′:4,5]cyclopenta [1,2-c]pyrazol-6-yl)phenyl)sulfonyl) morpholine]
0.3 to 1	< 0.001	0.001 to 0.01	COC1CN(Cc2ccc(-c3cc4c(s3)Cc3c(-c5ccc6cnn(C)c6c5)n[nH]c3-4)cc2)C1 [Compound 105, 6-(4-((3-methoxyazeti-din-1-yl)methyl)phenyl)-3-(1-methyl-1H-indazol-6-yl)-1,4-dihydrothieno [2′,3′:4,5]cyclopenta [1,2-c]pyrazole]
> 1	0.001 to 0.01	0.001 to 0.01	Cn1ncc2ccc(-c3n[nH]c4c3Cc3sc(-c5cc(C(=O)N6CCOCC6)ccn5)cc3-4)cc21 [Compound 56, (2-(3-(1-methyl-1H-indazol-6-yl)-1,4-dihydro-thieno[2′,3′:4,5]cyclopenta [1,2-c]pyrazol-6-yl)pyridin-4-yl)(morpholino) methanone]
> 1	< 0.001	0.001 to 0.01	Cn1ncc2ccc(-c3n[nH]c4c3Cc3sc(-c5ccc(CN6CCOCC6)nc5)cc3-4)cc21 [Compound 10, 4-((5-(3-(1-methyl-1H-indazol-6-yl)-1,4-dihydro-thieno[2′,3′:4,5]cyclopenta [1,2-c]pyrazol-6-yl)pyridin-2-yl)methyl)morpholine]
> 1	< 0.001	0.001 to 0.01	Cn1ncc2ccc(-c3n[nH]c4c3Cc3sc(C5CCNCC5)cc3-4)cc21 [Compound 96, 3-(1-methyl-1H-indazol-6-yl)-6-(piperidin-4-yl)-1,4-dihydrothieno [2′,3′:4,5]cyclopenta [1,2-c]pyrazole]
> 1	< 0.001	0.001 to 0.01	Cn1cc(-c2cc3c(s2)Cc2c(-c4ccc5cnn(C)c5c4)n[nH]c2-3)cc1C(=O)N1CCOCC1 [Compound 46, (1-methyl-4-(3-(1-methyl-1H-indazol-6-yl)-1,4-dihydrothieno[2′,3′:4,5]cyclopenta[1,2-c]pyrazol-6-yl)-1H-pyrrol-2-yl) (morpholino)methanone]
> 1	< 0.001	0.01 to 0.03	CC(C)n1ncc2ccc(-c3n[nH]c4c3Cc3sc(-c5ccc(CN6CCOCC6)cc5)cc3-4)cc21 [Compound 42, 4-(4-(3-(1-isopropyl-1H-indazol-6-yl)-1,4-dihydro-thieno[2′,3′:4,5]cyclopenta [1,2-c]pyrazol-6-yl)benzyl)morpholine]
> 1	0.001 to 0.01	0.03 to 0.1	Cn1ncc2ccc(-c3n[nH]c4c3Cc3sc(C#CCN5CCOCC5)cc3-4)cc21 [Compound 71, 4-(3-(3-(1-methyl-1H-indazol-6-yl)-1,4-dihydro-thieno[2′,3′:4,5]cyclopenta [1,2-c]pyrazol-6-yl)prop-2-yn-1-yl)morpholine]
> 1	< 0.001	0.01 to 0.03	Cn1ncc2ccc(-c3n[nH]c4c3Cc3sc(-c5csc(CN6CCOCC6)c5)cc3-4)cc21 [Compound 52, 4-((4-(3-(1-methyl-1H-indazol-6-yl)-1,4-dihydro-thieno[2′,3′:4,5]cyclopenta [1,2-c]pyrazol-6-yl)thiophen-2-yl)methyl) morpholine]
> 1	0.001 to 0.01	0.01 to 0.03	Cn1ncc2ccc(-c3n[nH]c4c3Cc3sc(-c5ccc(NC6CCOCC6)cc5)cc3-4)cc21 [Compound 72, N-(4-(3-(1-methyl-1H-indazol-6-yl)-1,4-dihydro-thieno[2′,3′:4,5]cyclopenta [1,2-c]pyrazol-6-yl)phenyl)tetrahydro-2H-pyran-4-amine]
> 1	< 0.001	0.001 to 0.01	Cn1ncc2ccc(-c3n[nH]c4c3Cc3sc(-c5ccc(CN6CCOCC6)cc5)cc3-4)cc21 [Compound 8, 4-(4-(3-(1-methyl-1H-indazol-6-yl)-1,4-dihydro-thieno[2′,3′:4,5]cyclopenta [1,2-c]pyrazol-6-yl)benzyl) morpholine]
> 1	0.001 to 0.01	0.001 to 0.01	Cn1ncc2ccc(-c3n[nH]c4c3Cc3sc(-c5ccc(CN6CCCCC6=O)cc5)cc3-4)cc21 [Compound 61, 1-(4-(3-(l-methyl-1H-indazol-6-yl)-1,4-dihydro-thieno[2′,3′:4,5]cyclopenta [1,2-c]pyrazol-6-yl)benzyl)piperidin-2-one]
